Reference: PubChem BioAssay (NCI)
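Values below derive from 48-hour exposures of cells grown in 96-well plates, with endpoints linearly interpolated between the two concentrations bracketing the appropriate inhibition level. TGI denotes the concentration required for complete inhibition of growth.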

Tests used:
Assay in all cases: DTP human tumour cell line panel, 48 h
[1] = tested on: 786-0 renal
[2] = tested on: A498 renal
[3] = tested on: A549 NSCLC
[4] = tested on: ACHN renal
[5] = tested on: BT-549 breast
[6] = tested on: CAKI-1 renal
[7] = tested on: CCRF-CEM leukemia
[8] = tested on: COLO 205 colon
[9] = tested on: DU-145 prostate
[10] = tested on: EKVX NSCLC
[11] = tested on: HCC-2998 colon
[12] = tested on: HCT-15 colon
[13] = tested on: HL-60(TB) leukemia
[14] = tested on: HOP-92 NSCLC
[15] = tested on: HS 578T breast
[16] = tested on: IGROV1 ovarian
[17] = tested on: K-562 leukemia
[18] = tested on: KM12 colon
[19] = tested on: LOX IMVI melanoma
[20] = tested on: M14 melanoma
[21] = tested on: MALME-3M melanoma
[22] = tested on: MCF7 breast
[23] = tested on: MDA-MB-231 breast
[24] = tested on: MDA-MB-435
[25] = tested on: MDA-N
[26] = tested on: MOLT-4 leukemia
[27] = tested on: NCI-H226 lung
[28] = tested on: NCI-H460 lung
[29] = tested on: NCI-H522 lung
[30] = tested on: NCI/ADR-RES ovarian
[31] = tested on: OVCAR-3 ovarian
[32] = tested on: OVCAR-4 ovarian
[33] = tested on: OVCAR-5 ovarian
[34] = tested on: OVCAR-8 ovarian
[35] = tested on: PC-3 prostate
[36] = tested on: RPMI-8226 leukemia
[37] = tested on: RXF 393 renal
[38] = tested on: SF-268 CNS
[39] = tested on: SF-295 CNS
[40] = tested on: SF-539 CNS
[41] = tested on: SK-MEL-2 melanoma
[42] = tested on: SK-MEL-28 melanoma
[43] = tested on: SK-MEL-5 melanoma
[44] = tested on: SN12C renal
[45] = tested on: SNB-19 CNS
[46] = tested on: SNB-75 CNS
[47] = tested on: SR leukemia
[48] = tested on: SW-620 colon
[49] = tested on: T-47D breast
[50] = tested on: TK-10 renal
[51] = tested on: U251 CNS
[52] = tested on: UACC-257 melanoma
[53] = tested on: UACC-62 melanoma
[54] = tested on: HCT-116 colon
[55] = tested on: HOP-62 NSCLC
[56] = tested on: HT29 colon
[57] = tested on: NCI-H23 lung
[58] = tested on: SK-OV-3 ovarian
[59] = tested on: UO-31 renal

Brc1c(C#CCC2CCCCC2)ccc(C#CCC2CCCCC2)c1Br
TGI [1]: > 100 µM
TGI [2]: > 100 µM
TGI [3]: > 100 µM
TGI [4]: > 100 µM
TGI [5]: > 100 µM
TGI [6]: > 100 µM
TGI [7]: > 100 µM
TGI [8]: > 100 µM
TGI [9]: > 100 µM
TGI [10]: > 100 µM
TGI [11]: > 100 µM
TGI [12]: > 100 µM
TGI [13]: > 100 µM
TGI [14]: > 100 µM
TGI [15]: > 100 µM
TGI [16]: > 100 µM
TGI [17]: > 100 µM
TGI [18]: > 100 µM
TGI [19]: > 100 µM
TGI [20]: > 100 µM
TGI [21]: > 100 µM
TGI [22]: > 100 µM
TGI [23]: > 100 µM
TGI [24]: > 100 µM
TGI [25]: > 100 µM
TGI [26]: > 100 µM
TGI [27]: > 100 µM
TGI [28]: > 100 µM
TGI [29]: > 100 µM
TGI [30]: > 100 µM
TGI [31]: > 100 µM
TGI [32]: > 100 µM
TGI [33]: > 100 µM
TGI [34]: > 100 µM
TGI [35]: > 100 µM
TGI [36]: > 100 µM
TGI [37]: > 100 µM
TGI [38]: > 100 µM
TGI [39]: > 100 µM
TGI [40]: > 100 µM
TGI [41]: > 100 µM
TGI [42]: > 100 µM
TGI [43]: > 100 µM
TGI [44]: > 100 µM
TGI [45]: > 100 µM
TGI [46]: > 100 µM
TGI [47]: > 100 µM
TGI [48]: > 100 µM
TGI [49]: > 100 µM
TGI [50]: > 100 µM
TGI [51]: > 100 µM
TGI [52]: > 100 µM
TGI [53]: > 100 µM

COC(=O)c1c(O)ccc2c1C1(Cc3ccccc3C1=O)C(O)O2 (stereo not given)
TGI [1]: 30.2 µM
TGI [2]: > 100 µM
TGI [3]: 69.9 µM
TGI [4]: 55.7 µM
TGI [5]: 37 µM
TGI [6]: 61.8 µM
TGI [7]: 11.7 µM
TGI [8]: > 100 µM
TGI [9]: > 100 µM
TGI [10]: 68.5 µM
TGI [11]: 69.9 µM
TGI [54]: 32.6 µM
TGI [12]: 54.2 µM
TGI [13]: 40.4 µM
TGI [55]: 28.7 µM
TGI [14]: 60.2 µM
TGI [15]: 61 µM
TGI [56]: > 100 µM
TGI [16]: 36.3 µM
TGI [17]: > 100 µM
TGI [18]: 69.1 µM
TGI [19]: > 100 µM
TGI [20]: 52.2 µM
TGI [21]: 71.4 µM
TGI [22]: > 100 µM
TGI [23]: 52.1 µM
TGI [24]: 31.1 µM
TGI [25]: 28.7 µM
TGI [26]: 21.5 µM
TGI [27]: 35.5 µM
TGI [57]: > 100 µM
TGI [28]: > 100 µM
TGI [29]: 18.1 µM
TGI [30]: > 100 µM
TGI [31]: 43.9 µM
TGI [32]: 35.8 µM
TGI [33]: 51.7 µM
TGI [34]: 36.7 µM
TGI [35]: 92.2 µM
TGI [36]: 17.3 µM
TGI [37]: > 100 µM
TGI [38]: 51.6 µM
TGI [39]: > 100 µM
TGI [40]: 55.7 µM
TGI [41]: > 100 µM
TGI [42]: > 100 µM
TGI [43]: > 100 µM
TGI [58]: 57.8 µM
TGI [44]: 86.2 µM
TGI [45]: > 100 µM
TGI [47]: 25.3 µM
TGI [48]: > 100 µM
TGI [49]: 45.3 µM
TGI [50]: 52.6 µM
TGI [51]: 61.4 µM
TGI [52]: > 100 µM
TGI [59]: 85 µM

COC(=O)c1c(OC(C)=O)ccc2c1c1c(OC(C)=O)c3ccccc3c(OC(C)=O)c1n2Cc1ccccc1
TGI [1]: 37.2 µM
TGI [2]: 43.8 µM
TGI [3]: 34.2 µM
TGI [4]: 47.1 µM
TGI [5]: 28.8 µM
TGI [6]: 27.9 µM
TGI [7]: 45 µM
TGI [8]: 15.6 µM
TGI [9]: 45.5 µM
TGI [10]: 10.4 µM
TGI [11]: 5.22 µM
TGI [54]: 11.5 µM
TGI [12]: 14.7 µM
TGI [13]: 26.6 µM
TGI [55]: 25.4 µM
TGI [14]: 3.27 µM
TGI [15]: > 50 µM
TGI [56]: 31.5 µM
TGI [16]: 19.7 µM
TGI [17]: > 50 µM
TGI [18]: 5.65 µM
TGI [20]: 17.2 µM
TGI [21]: 22.6 µM
TGI [22]: > 50 µM
TGI [23]: 37.2 µM
TGI [24]: 27.9 µM
TGI [25]: 41.1 µM
TGI [26]: > 50 µM
TGI [27]: > 50 µM
TGI [57]: 18.3 µM
TGI [28]: > 50 µM
TGI [29]: 3.4 µM
TGI [30]: 46.6 µM
TGI [31]: 3.52 µM
TGI [32]: 29.6 µM
TGI [33]: 19.8 µM
TGI [34]: > 50 µM
TGI [35]: 32 µM
TGI [36]: 5.4 µM
TGI [37]: > 50 µM
TGI [38]: 19.4 µM
TGI [39]: 10.9 µM
TGI [40]: 4.04 µM
TGI [41]: 6.81 µM
TGI [42]: 33.5 µM
TGI [43]: 9.47 µM
TGI [58]: 19.5 µM
TGI [44]: > 50 µM
TGI [45]: > 50 µM
TGI [46]: 6.61 µM
TGI [47]: > 50 µM
TGI [49]: 10.5 µM
TGI [50]: > 50 µM
TGI [51]: 17.3 µM
TGI [52]: > 50 µM
TGI [53]: 20.3 µM
TGI [59]: 24.7 µM

OC1(c2ccccc2)CSC2=Nc3ccccc3C3CCN1N23 (stereo not given)
TGI [1]: 34.4 µM
TGI [2]: 44.7 µM
TGI [3]: 74.3 µM
TGI [4]: 54.1 µM
TGI [5]: 57.4 µM
TGI [6]: 72.6 µM
TGI [7]: 94.1 µM
TGI [8]: 32.3 µM
TGI [9]: 29.7 µM
TGI [10]: 28.6 µM
TGI [11]: 88.7 µM
TGI [54]: 44.1 µM
TGI [12]: 39.1 µM
TGI [13]: 71.1 µM
TGI [55]: 50 µM
TGI [14]: 69.6 µM
TGI [15]: > 100 µM
TGI [56]: 33.8 µM
TGI [16]: 27.4 µM
TGI [17]: > 100 µM
TGI [18]: 42 µM
TGI [19]: 36.9 µM
TGI [20]: 38.3 µM
TGI [21]: 81.7 µM
TGI [22]: 46 µM
TGI [23]: 31.9 µM
TGI [24]: 34 µM
TGI [25]: 27.2 µM
TGI [26]: 80.9 µM
TGI [27]: > 100 µM
TGI [57]: 79.2 µM
TGI [28]: > 100 µM
TGI [29]: 40.5 µM
TGI [30]: 63.9 µM
TGI [31]: > 100 µM
TGI [32]: > 100 µM
TGI [33]: 32 µM
TGI [34]: 43.5 µM
TGI [35]: 29.5 µM
TGI [37]: 36.9 µM
TGI [38]: 58.5 µM
TGI [39]: 33.8 µM
TGI [40]: 30.8 µM
TGI [41]: 32.1 µM
TGI [42]: 11.3 µM
TGI [43]: 35.9 µM
TGI [58]: > 100 µM
TGI [44]: 40.1 µM
TGI [45]: 37.4 µM
TGI [46]: 25.5 µM
TGI [47]: 55.4 µM
TGI [48]: 47.1 µM
TGI [49]: 47.5 µM
TGI [50]: 43.2 µM
TGI [51]: 28.1 µM
TGI [52]: 86.8 µM
TGI [53]: 46.3 µM
TGI [59]: 28.7 µM
